Like-named read-outs stand apart in the source and are kept apart here.
Columns and labels:
Format in all cases: cell-based
AKT1 E17K = target: T1, AKT1 E17K (Homo sapiens, UniProt P31749, E17K); test: Live cell AKT1 E17K target engagement by NanoBRET competitive probe displacement; conditions: HEK293 cells transfected with kinase-NanoLuciferase fusion, 2 h at 37° C.
T1 construct: expressed in transfected cells; host or cells: HEK293
Summary of the method: (§1)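 HEK293 cells transiently expressing kinase–NanoLuc fusions overnight; treated with serial compound dilutions plus fluorescent ATP-competitive tracer at ~EC50, 2 h at 37 °C. BRET ratio E600/E460 read after substrate and extracellular luciferase inhibitor; IC50 from log(inhibitor) vs response Hill fit.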

AKT1 WT = target: T2, AKT1 WT (Homo sapiens, UniProt P31749); test: Live cell AKT1 WT target engagement by NanoBRET competitive probe displacement; conditions: HEK293 cells transfected with kinase-NanoLuciferase fusion, 2 h at 37° C.
T2 construct: expressed in transfected cells; host or cells: HEK293
Summary of the method: as §1

[1] = system: LAPC4 prostate cancer cells; test: Antiproliferative effects in LAPC4 cells (CellTiter Glo); conditions: LAPC4 cells (AKT1 E17K allele), read-out: LAPC4 proliferation IC50
Summary of the method: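 LAPC4 prostate cancer cells carrying AKT1 E17K, grown in IMDM with 12% FBS, were seeded at 1,000 cells/well and exposed to compound dilutions for 72 h. Viability was read as intracellular ATP by CellTiter Glo luminescence, and IC50 was fitted with a log(inhibitor) vs. response Hill equation.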

AKT2 = target: T3, AKT2 (Homo sapiens, UniProt P31751); test: Live cell AKT2 target engagement by NanoBRET competitive probe displacement; conditions: HEK293 cells transfected with kinase-NanoLuciferase fusion, 2 h at 37° C.
T3 construct: expressed in transfected cells; host or cells: HEK293
Summary of the method: as §1

T3 sequence (P31751 whole entry, the tested form may be a part): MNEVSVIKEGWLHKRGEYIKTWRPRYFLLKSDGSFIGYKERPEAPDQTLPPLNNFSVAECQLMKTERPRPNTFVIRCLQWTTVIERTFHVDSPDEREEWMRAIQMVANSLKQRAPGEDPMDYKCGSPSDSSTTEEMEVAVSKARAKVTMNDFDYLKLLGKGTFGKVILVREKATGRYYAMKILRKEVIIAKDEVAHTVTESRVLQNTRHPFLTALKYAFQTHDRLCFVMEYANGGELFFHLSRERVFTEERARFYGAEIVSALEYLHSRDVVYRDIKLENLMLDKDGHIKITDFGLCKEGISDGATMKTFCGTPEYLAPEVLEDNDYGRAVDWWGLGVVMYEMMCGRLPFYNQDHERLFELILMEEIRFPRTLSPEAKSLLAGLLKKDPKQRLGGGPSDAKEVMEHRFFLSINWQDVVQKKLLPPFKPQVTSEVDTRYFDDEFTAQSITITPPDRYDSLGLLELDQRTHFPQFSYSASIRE
T1 sequence (P31749 whole entry E17K, the tested form may be a part): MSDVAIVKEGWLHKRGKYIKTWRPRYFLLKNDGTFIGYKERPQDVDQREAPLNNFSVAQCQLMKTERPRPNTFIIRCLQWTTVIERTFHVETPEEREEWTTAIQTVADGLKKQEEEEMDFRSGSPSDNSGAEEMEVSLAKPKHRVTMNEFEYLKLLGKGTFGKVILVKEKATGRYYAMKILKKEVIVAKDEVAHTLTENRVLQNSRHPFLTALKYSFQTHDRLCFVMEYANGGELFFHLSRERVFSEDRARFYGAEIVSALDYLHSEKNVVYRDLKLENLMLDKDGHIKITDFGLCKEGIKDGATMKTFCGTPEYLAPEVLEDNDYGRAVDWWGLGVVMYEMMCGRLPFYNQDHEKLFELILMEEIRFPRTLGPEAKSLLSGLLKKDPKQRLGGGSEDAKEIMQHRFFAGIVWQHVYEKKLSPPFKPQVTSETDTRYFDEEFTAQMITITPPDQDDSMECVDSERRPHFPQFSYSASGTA
T2 sequence (P31749 whole entry, the tested form may be a part): as the sequence (P31749 whole entry E17K, the tested form may be a part) above, with K17E counted along it

## C=CC(=O)N1CCC(N[C@H]2CCCc3cc(-n4c(-c5cccnc5N)nc5ccc(-n6cccn6)nc54)ccc32)CC1 [Example 154, (S)-1-(4-((6-(2-(2-aminopyridin-3-yl)-5-(1H-pyrazol-1-yl)-3H-imidazo[4,5-b]pyridin-3-yl)-1,2,3,4-tetrahydronaphthalen-1-yl)amino)piperidin-1-yl)prop-2-en-1-one]
AKT1 E17K
  IC50: > 1000 nM
AKT1 WT
  IC50: 301 nM
[1]; Homo sapiens, LAPC4, 72 h
  IC50: > 10000 nM
AKT2
  IC50: > 10000 nM

## N#CN1CCC(N[C@H]2CCc3cc(-n4c(-c5cccnc5N)nc5ccc(-n6cccn6)nc54)ccc32)CC1 [Example 51, 4-{[(1S)-5-[2-(2-aminopyridin-3-yl)-5-(pyrazol-1-yl)imidazo[4,5-b]pyridin-3-yl]-2,3-dihydro-1H-inden-1-yl]amino}piperidine-1-carbonitrile]
AKT1 E17K
  IC50: 727 nM
AKT1 WT
  IC50: 115 nM
[1]; Homo sapiens, LAPC4, 72 h
  IC50: 1460 nM
AKT2
  IC50: 5560 nM

## C=CC(=O)N1CCOCC(N[C@H]2CCc3cc(-n4c(-c5cccnc5N)nc5ccc(-n6cccn6)nc54)ccc32)C1 (single isomer, unassigned) [Example 54, 1-((*)-6-(((S)-5-(2-(2-aminopyridin-3-yl)-5-(1H-pyrazol-1-yl)-3H-imidazo[4,5-b]pyridin-3-yl)-2,3-dihydro-1H-inden-1-yl)amino)-1,4-oxazepan-4-yl)prop-2-en-1-one]
AKT1 E17K
  IC50: 58.5 nM
AKT1 WT
  IC50: 27.1 nM
[1]; 72 h
  IC50: 107 nM
AKT2
  IC50: 292 nM

## C=CC(=O)N1CCC(N[C@H]2CCc3cc(-n4c(-c5ccccc5)nc5ccc(-n6ccc(F)n6)nc54)ccc32)CC1 [Example 282, 1-(4-{[(1S)-5-[5-(3-fluoropyrazol-1-yl)-2-phenylimidazo[4,5-b]pyridin-3-yl]-2,3-dihydro-1H-inden-1-yl]amino}piperidin-1-yl)prop-2-en-1-one]
AKT1 E17K
  IC50: 15.2 nM
AKT1 WT
  IC50: 1590 nM
[1]; Homo sapiens, LAPC4, 72 h
  IC50: 464 nM
AKT2
  IC50: 86 nM

## C=CC(=O)N1CCCC(N[C@H]2CCc3cc(-n4c(-c5cccnc5N)nc5ccc(-n6cccn6)nc54)ccc32)CC1 (single isomer, unassigned) [Example 82, 1-((*)-4-(((S)-5-(2-(2-aminopyridin-3-yl)-5-(1H-pyrazol-1-yl)-3H-imidazo[4,5-b]pyridin-3-yl)-2,3-dihydro-1H-inden-1-yl)amino)azepan-1-yl)prop-2-en-1-one]
AKT1 E17K
  IC50: 247 nM
AKT1 WT
  IC50: 78.1 nM
[1]; 72 h
  IC50: 568 nM
AKT2
  IC50: 640 nM

## C=CC(=O)N1CCC(N[C@@H]2c3ccc(-n4c(-c5cccnc5N)nc5ccc(-n6cccn6)nc54)cc3CC2OC)CC1 (single isomer, unassigned) [Example 163, 1-(4-(((1R,2*)-5-(2-(2-aminopyridin-3-yl)-5-(1H-pyrazol-1-yl)-3H-imidazo[4,5-b]pyridin-3-yl)-2-methoxy-2,3-dihydro-1H-inden-1-yl)amino)piperidin-1-yl)prop-2-en-1-one]
AKT1 E17K
  IC50: 642 nM
AKT1 WT
  IC50: 71.7 nM
[1]; 72 h
  IC50: 879 nM
AKT2
  IC50: 1910 nM

## C=CC(=O)N1CCN(NC2CCc3cc(-n4c(-c5cccnc5N)nc5ccc(-n6ccc(F)n6)nc54)ccc32)CC1 (single isomer, unassigned) [Example 201, 1-(4-{[(1*)-5-[2-(2-aminopyridin-3-yl)-5-(3-fluoropyrazol-1-yl)imidazo[4,5-b]pyridin-3-yl]-2,3-dihydro-1H-inden-1-yl]amino}piperazin-1-yl)prop-2-en-1-one]
AKT1 E17K
  IC50: 10.2 nM
AKT1 WT
  IC50: 96.8 nM
[1]; 72 h
  IC50: 127 nM
AKT2
  IC50: 41 nM

## C=CC(=O)N1CCC(N[C@@H]2c3ccc(-n4c(-c5cccnc5N)nc5ccc(-n6ccc(F)n6)nc54)cc3CC2F)C[C@H]1C (single isomer, unassigned) [Example 275, 1-((2R,4*)-4-(((1R,2*)-5-(2-(2-aminopyridin-3-yl)-5-(3-fluoro-1H-pyrazol-1-yl)-3H-imidazo[4,5-b]pyridin-3-yl)-2-fluoro-2,3-dihydro-1H-inden-1-yl)amino)-2-methylpiperidin-1-yl)prop-2-en-1-one]
AKT1 E17K
  IC50: 84 nM
AKT1 WT
  IC50: 2620 nM
[1]; 72 h
  IC50: 326 nM
AKT2
  IC50: 81.9 nM

## C=CC(=O)N1C[C@H]2C[C@@H]1CC2N[C@H]1CCc2cc(-n3c(-c4cccnc4N)nc4ccc(-n5cccn5)nc43)ccc21 (single isomer, unassigned) [Example 137, 1-[(1R,4R,5*)-5-{[(1S)-5-[2-(2-aminopyridin-3-yl)-5-(pyrazol-1-yl)imidazo[4,5-b]pyridin-3-yl]-2,3-dihydro-1H-inden-1-yl]amino}-2-azabicyclo[2.2.1]heptan-2-yl]prop-2-en-1-one]
AKT1 E17K
  IC50: 71.6 nM
AKT1 WT
  IC50: 14.2 nM
[1]; 72 h
  IC50: 161 nM
AKT2
  IC50: 244 nM

## C=CC(=O)N1CCC[C@@H]1C(=O)N[C@H]1CCc2cc(-n3c(-c4cccnc4N)nc4ccc(-n5cccn5)nc43)ccc21 [Example 25]
AKT1 E17K
  IC50: > 1000 nM
AKT1 WT
  IC50: > 1000 nM
[1]; Homo sapiens, LAPC4, 72 h
  IC50: > 10000 nM
AKT2
  IC50: > 10000 nM

## C=CC(=O)N1CCC(N[C@@H]2c3ccc(-n4c(-c5cccnc5N)nc5ccc(-n6cccn6)nc54)cc3CC2F)C(C)C1 (single isomer, unassigned) [Example 291, 1-[(3*,4*)-4-{[(1R,2*)-5-[2-(2-aminopyridin-3-yl)-5-(pyrazol-1-yl)imidazo[4,5-b]pyridin-3-yl]-2-fluoro-2,3-dihydro-1H-inden-1-yl]amino}-3-methylpiperidin-1-yl]prop-2-en-1-one]
AKT1 E17K
  IC50: 68.3 nM
AKT1 WT
  IC50: 1580 nM
[1]; 72 h
  IC50: 1110 nM
AKT2
  IC50: 358 nM

## C=C(Cl)C(=O)Nc1ccccc1C(=O)N[C@H]1CCc2cc(-n3c(-c4cccnc4N)nc4ccc(-n5cccn5)nc43)ccc21 [Example 38, (S)-N-(5-(2-(2-aminopyridin-3-yl)-5-(1H-pyrazol-1-yl)-3H-imidazo[4,5-b]pyridin-3-yl)-2,3-dihydro-1H-inden-1-yl)-2-(2-chloroacrylamido)benzamide]
AKT1 E17K
  IC50: 881 nM
AKT1 WT
  IC50: 204 nM
[1]; Homo sapiens, LAPC4, 72 h
  IC50: > 10000 nM
AKT2
  IC50: 2090 nM

## C=CC(=O)N1C[C@@H]2C[C@H]1CC2N[C@H]1CCc2cc(-n3c(-c4cccnc4N)nc4ccc(-n5cccn5)nc43)ccc21 (single isomer, unassigned) [Example 135, 1-[(1S,4S,5*)-5-{[(1S)-5-[2-(2-aminopyridin-3-yl)-5-(pyrazol-1-yl)imidazo[4,5-b]pyridin-3-yl]-2,3-dihydro-1H-inden-1-yl]amino}-2-azabicyclo[2.2.1]heptan-2-yl]prop-2-en-1-one]
AKT1 E17K
  IC50: 152 nM
AKT1 WT
  IC50: 22.2 nM
[1]; Homo sapiens, LAPC4, 72 h
  IC50: 302 nM
AKT2
  IC50: 478 nM

## C=CC(=O)N1CC2(CCC(N[C@H]3CCc4cc(-n5c(-c6cccnc6N)nc6ccc(-n7cccn7)nc65)ccc43)C2)C1 (single isomer, unassigned) [Example 92, 1-((*)-6-(((S)-5-(2-(2-aminopyridin-3-yl)-5-(1H-pyrazol-1-yl)-3H-imidazo[4,5-b]pyridin-3-yl)-2,3-dihydro-1H-inden-1-yl)amino)-2-azaspiro[3.4]octan-2-yl)prop-2-en-1-one]
AKT1 E17K
  IC50: 18.9 nM
AKT1 WT
  IC50: 6.94 nM
[1]; 72 h
  IC50: 30.7 nM
AKT2
  IC50: 58.8 nM

## C=CC(=O)N1CCC(N[C@H]2CCc3cc(-n4c(-c5cccnc5N)nc5ccc(N6CCC(F)(F)CC6)nc54)ccc32)CC1 [Example 186, 1-(4-{[(1S)-5-[2-(2-aminopyridin-3-yl)-5-(4,4-difluoropiperidin-1-yl)imidazo[4,5-b]pyridin-3-yl]-2,3-dihydro-1H-inden-1-yl]amino}piperidin-1-yl)prop-2-en-1-one]
AKT1 E17K
  IC50: 30.6 nM
AKT1 WT
  IC50: 877 nM
[1]; Homo sapiens, LAPC4, 72 h
  IC50: 801 nM
AKT2
  IC50: 954 nM

## C=CC(=O)N1CCC(N[C@H]2CCc3cc(-n4c(-c5cccnc5N)nc5ccc(-n6cccn6)nc54)ccc32)c2ccccc21 (single isomer, unassigned) [Example 127, 1-[(4*)-4-{[(1S)-5-[2-(2-aminopyridin-3-yl)-5-(pyrazol-1-yl)imidazo[4,5-b]pyridin-3-yl]-2,3-dihydro-1H-inden-1-yl]amino}-3,4-dihydro-2H-quinolin-1-yl]prop-2-en-1-one]
AKT1 E17K
  IC50: 8.17 nM
AKT1 WT
  IC50: 9.06 nM
[1]; 72 h
  IC50: 37.1 nM
AKT2
  IC50: 36.9 nM

## C=CC(=O)N1CCC(N[C@H]2CCc3cc(-n4c(-c5cccnc5N)nc5ccc(-n6ccc(C7CC7)n6)nc54)ccc32)CC1 [Example 208, (S)-1-(4-((5-(2-(2-aminopyridin-3-yl)-5-(3-cyclopropyl-1H-pyrazol-1-yl)-3H-imidazo[4,5-b]pyridin-3-yl)-2,3-dihydro-1H-inden-1-yl)amino)piperidin-1-yl)prop-2-en-1-one]
AKT1 E17K
  IC50: 5.74 nM
AKT1 WT
  IC50: 77.8 nM
[1]; Homo sapiens, LAPC4, 72 h
  IC50: 69.8 nM
AKT2
  IC50: 26.1 nM

## C=CC(=O)N1CC2CC[C@H]1CC2N[C@H]1CCc2cc(-n3c(-c4cccnc4N)nc4ccc(-n5cccn5)nc43)ccc21 (single isomer, unassigned) [Example 133, 1-[(1S,4S,5*)-5-{[(1S)-5-[2-(2-aminopyridin-3-yl)-5-(pyrazol-1-yl)imidazo[4,5-b]pyridin-3-yl]-2,3-dihydro-1H-inden-1-yl]amino}-2-azabicyclo[2.2.2]octan-2-yl]prop-2-en-1-one]
AKT1 E17K
  IC50: 13.4 nM
AKT1 WT
  IC50: 9.71 nM
[1]; 72 h
  IC50: 16.3 nM
AKT2
  IC50: 47 nM
